Laboratory results reported in the NIST ThermoML archive (doi:10.1021/je700521t).

Columns and labels:
[1] = 101.33 kPa, Liquid; for viscosity: Falling or rolling sphere viscometry
[2] = refractive index (Na D-line) (dimensionless); details: 101.33 kPa, Liquid

CCCCn1cc[n+](C)c1.[O-][Cl+3]([O-])([O-])[O-] [1-butyl-3-methylimidazolium perchlorate]
Details | refractive index, [2] | viscosity, [1] [mPa·s]
283.15 K | 1.4763 | 466.36
288.15 K | 1.4751 | 330.8
293.15 K | 1.474 | 241.56
298.15 K | 1.4725 | 180.26
303.15 K | 1.4712 | 137.85
308.15 K | 1.4696 | 107.28
313.15 K | 1.4685 | 85.75
318.15 K | 1.4667 | 69.52
323.15 K | 1.4655 | 57.22
328.15 K | 1.4642 | 47.78
333.15 K | 1.4627 | 39.9
338.15 K | 1.4615 | 34.14
343.15 K | 1.4602 | 29.49
348.15 K | 1.459 | 25.74
353.15 K | 1.4577 | 22.64

[1], Vibrating tube method
Details | mass density [kg/m3]
283.15 K | 1263.5
288.15 K | 1259.9
293.15 K | 1256.2
298.15 K | 1252.7
303.15 K | 1249.2
308.15 K | 1245.7
313.15 K | 1242.2
318.15 K | 1238.8
323.15 K | 1235.3
328.15 K | 1231.9
333.15 K | 1228.4
338.15 K | 1225
343.15 K | 1221.6
348.15 K | 1218.2
353.15 K | 1214.8

CCCCCCCC[n+]1ccn(C)c1.F[B-](F)(F)F [1-methyl-3-octylimidazolium tetrafluoroborate]
Details | mass density, [1] [kg/m3] | refractive index, [2] | viscosity, [1] [mPa·s]
283.15 K | 1124.9 | 1.4363 | 1037
288.15 K | 1121.4 | 1.435 | 718.75
293.15 K | 1117.9 | 1.4336 | 462.9
298.15 K | 1114.4 | 1.4322 | 334.17
303.15 K | 1110.9 | 1.431 | 246.18
308.15 K | 1107.5 | 1.4288 | 191.95
313.15 K | 1104.1 | 1.4271 | 147.92
318.15 K | 1100.7 | 1.426 | 116.38
323.15 K | 1097.3 | 1.425 | 91.95
328.15 K | 1093.9 | 1.4235 | 74.79
333.15 K | 1090.6 | 1.4222 | 60.95
338.15 K | 1087.2 | 1.421 | 50.88
343.15 K | 1083.9 | 1.4195 | 42.06
348.15 K | 1080.5 | 1.418 | 35.78
353.15 K | 1077.2 | 1.4167 | 30.11
358.15 K | 1073.8 | 1.4155 | 25.87
363.15 K | 1070.5 | 1.4142 | 21.57
